Test results taken from PubChem BioAssay AID256 (DTP/NCI, 2004).
“And” between values parts separate entries of the source, which are not always exact repeats. Equal entries are not always repeated. Inconclusive results and toxic doses are left out.

Tested on: CD2F1 mice, L1210 leukemia ip, survival T/C
Experiment: NCI In Vivo Anticancer Drug Screen. Data for tumor model L1210 Leukemia (intraperitoneal) in CD2F1 (CDF1) mice
Details: higher = longer survival
Method in brief: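 Read-out first: treated-group measurement over vehicle-control measurement, expressed as a ratio. Animals bore a transplanted tumor line and were dosed with compound or vehicle.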

[1] = endpoint: mean survival time, dose: 100.0 mg/kg/injection, schedule: Q01DX009 (ip), vehicle: saline
[2] = endpoint: mean survival time, dose: 100.0 mg/kg/injection, schedule: Q01DX009 (ip), vehicle: saline with Tween-80
[3] = endpoint: mean survival time, dose: 100.0 mg/kg/injection, schedule: Q04DX003 (ip), vehicle: saline with Tween-80
[4] = endpoint: mean survival time, dose: 200.0 mg/kg/injection, schedule: Q01DX009 (ip), vehicle: saline with Tween-80
[5] = endpoint: mean survival time, dose: 200.0 mg/kg/injection, schedule: Q04DX003 (ip), vehicle: saline with Tween-80
[6] = endpoint: mean survival time, dose: 400.0 mg/kg/injection, schedule: Q01DX009 (ip), vehicle: saline with Tween-80
[7] = endpoint: mean survival time, dose: 400.0 mg/kg/injection, schedule: Q04DX003 (ip), vehicle: saline with Tween-80
[8] = endpoint: mean survival time, dose: 100.0 mg/kg/injection, schedule: Q01DX001 (ip), vehicle: saline
[9] = endpoint: mean survival time, dose: 200.0 mg/kg/injection, schedule: Q01DX001 (ip), vehicle: saline

SMILES: C#CCNC1=C(C)C(=O)C2=C(C1=O)[C@H](COC(N)=O)[C@]1(OC)[C@@H]3N[C@@H]3CN21
- T/C (endpoint: mean survival time, dose: 1.5 mg/kg/injection, schedule: Q01DX001 (ip), vehicle: distilled water + Tween-80): 112 % of control
- T/C (endpoint: mean survival time, dose: 3.0 mg/kg/injection, schedule: Q01DX001 (ip), vehicle: distilled water + Tween-80): 120 % of control and 102 % of control
- T/C (endpoint: mean survival time, dose: 6.0 mg/kg/injection, schedule: Q01DX001 (ip), vehicle: distilled water + Tween-80): 110 % of control
- T/C (endpoint: mean survival time, dose: 24.0 mg/kg/injection, schedule: Q01DX001 (ip), vehicle: distilled water + Tween-80): 186 % of control
- T/C (endpoint: mean survival time, dose: 48.0 mg/kg/injection, schedule: Q01DX001 (ip), vehicle: distilled water + Tween-80): 87 % of control
- T/C (endpoint: median survival time, dose: 6.0 mg/kg/injection, schedule: Q01DX009 (ip), vehicle: distilled water + Tween-80): 166 % of control
- T/C (endpoint: median survival time, dose: 6.25 mg/kg/injection, schedule: Q01DX009 (ip), vehicle: distilled water + Tween-80): 178 % of control
- T/C (endpoint: median survival time, dose: 12.5 mg/kg/injection, schedule: Q01DX009 (ip), vehicle: distilled water + Tween-80): 101 % of control
- T/C (endpoint: median survival time, dose: 25.0 mg/kg/injection, schedule: Q01DX009 (ip), vehicle: distilled water + Tween-80): 92 % of control

SMILES: CC(=O)CSc1ncnc2nc[nH]c12
- T/C (endpoint: mean survival time, dose: 62.5 mg/kg/injection, schedule: Q01DX015 (ip), vehicle: saline): 118 % of control
- T/C (endpoint: mean survival time, dose: 250.0 mg/kg/injection, schedule: Q01DX015 (ip), vehicle: saline): 122 % of control
- T/C (endpoint: mean survival time, dose: 1000.0 mg/kg/injection, schedule: Q01DX015 (ip), vehicle: saline): 150 % of control

SMILES: C=CC1C[N+]2(SS(=O)(=O)O)CCC1CC2C(O)c1ccnc2ccc(OC)cc12 (centres undefined)
- T/C (endpoint: mean survival time, dose: 75.0 mg/kg/injection, schedule: Q04DX003 (ip), vehicle: saline): 100 % of control
- T/C (endpoint: mean survival time, dose: 150.0 mg/kg/injection, schedule: Q04DX003 (ip), vehicle: saline): 95 % of control

SMILES: NC(=O)NOCc1ccc([N+](=O)[O-])cc1
- T/C [1]: 97 % of control
- T/C (endpoint: mean survival time, dose: 200.0 mg/kg/injection, schedule: Q01DX009 (ip), vehicle: saline): 96 % of control
- T/C (endpoint: mean survival time, dose: 400.0 mg/kg/injection, schedule: Q01DX009 (ip), vehicle: saline): 95 % of control

SMILES: COC(CCC#N)c1ccc(Cl)cc1 (centres undefined)
- T/C [2]: 95 % of control
- T/C [3]: 97 % of control
- T/C [4]: 101 % of control
- T/C [5]: 102 % of control
- T/C [6]: 96 % of control
- T/C [7]: 98 % of control

SMILES: CC1NC1(c1ccccc1)n1ccnc1 (centres undefined)
- T/C (endpoint: mean survival time, dose: 12.5 mg/kg/injection, schedule: Q01DX009 (ip), vehicle: water): 95 % of control
- T/C (endpoint: mean survival time, dose: 25.0 mg/kg/injection, schedule: Q01DX009 (ip), vehicle: water): 99 % of control
- T/C (endpoint: mean survival time, dose: 50.0 mg/kg/injection, schedule: Q01DX009 (ip), vehicle: water): 99 % of control
- T/C (endpoint: mean survival time, dose: 100.0 mg/kg/injection, schedule: Q01DX009 (ip), vehicle: water): 103 % of control
- T/C (endpoint: mean survival time, dose: 200.0 mg/kg/injection, schedule: Q01DX009 (ip), vehicle: water): 90 % of control

SMILES: COc1cc2cc3c4cc5c(cc4cc[n+]3c(C)c2cc1OC)OCO5 (tested in a mixture with another compound)
- T/C (endpoint: mean survival time, dose: 25.0 mg/kg/injection, schedule: Q04DX003 (ip), vehicle: saline): 122 % of control
- T/C (endpoint: mean survival time, dose: 50.0 mg/kg/injection, schedule: Q04DX003 (ip), vehicle: saline): 122 % of control
- T/C [3]: 92 % of control
- T/C (endpoint: mean survival time, dose: 100.0 mg/kg/injection, schedule: Q04DX003 (ip), vehicle: saline): 118 % of control

SMILES: COC(=O)c1ccc(OCc2ccccc2)c([N+](=O)[O-])c1
- T/C (endpoint: mean survival time, dose: 100.0 mg/kg/injection, schedule: Q01DX001 (ip), vehicle: saline sonified): 98 % of control
- T/C [2]: 105 % of control
- T/C (endpoint: mean survival time, dose: 200.0 mg/kg/injection, schedule: Q01DX001 (ip), vehicle: saline sonified): 96 % of control
- T/C [4]: 97 % of control
- T/C (endpoint: mean survival time, dose: 400.0 mg/kg/injection, schedule: Q01DX001 (ip), vehicle: saline sonified): 95 % of control
- T/C [6]: 105 % of control

SMILES: O=C(O)c1cc(-c2ccc(Cl)cc2)nc2c1ccc1ccccc12
- T/C [8]: 102 % of control
- T/C [9]: 97 % of control

SMILES: CCc1ccccc1NC(=O)/C=C/c1ccccc1
- T/C (endpoint: mean survival time, dose: 100.0 mg/kg/injection, schedule: Q04DX002 (ip), vehicle: saline with Tween-80): 86 % of control
- T/C (endpoint: mean survival time, dose: 200.0 mg/kg/injection, schedule: Q04DX002 (ip), vehicle: saline with Tween-80): 96 % of control
- T/C (endpoint: mean survival time, dose: 400.0 mg/kg/injection, schedule: Q04DX002 (ip), vehicle: saline with Tween-80): 93 % of control

SMILES: CC(=O)Nc1ccsc1
- T/C [8]: 96 % of control
- T/C [9]: 95 % of control
- T/C (endpoint: mean survival time, dose: 400.0 mg/kg/injection, schedule: Q01DX001 (ip), vehicle: saline): 95 % of control

SMILES: CC(C)(C)C1(C)CC1(Br)Br (centres undefined)
- T/C [3]: 105 % of control
- T/C [5]: 96 % of control

SMILES: Nc1c(C(=O)O)ncn1C1OC(CO)C(O)C1O (centres undefined)
- T/C (endpoint: median survival time, dose: 7.88 mg/kg/injection, schedule: Q01DX005 (ip), vehicle: saline): 101 % of control
- T/C (endpoint: median survival time, dose: 15.75 mg/kg/injection, schedule: Q01DX005 (ip), vehicle: saline): 104 % of control
- T/C (endpoint: median survival time, dose: 31.5 mg/kg/injection, schedule: Q01DX005 (ip), vehicle: saline): 104 % of control
- T/C (endpoint: median survival time, dose: 63.0 mg/kg/injection, schedule: Q01DX005 (ip), vehicle: saline): 103 % of control
- T/C (endpoint: median survival time, dose: 126.0 mg/kg/injection, schedule: Q01DX005 (ip), vehicle: saline): 92 % of control

SMILES: Cc1[nH]nc2[nH]cnc(=S)c12
- T/C (endpoint: mean survival time, dose: 12.5 mg/kg/injection, schedule: Q01DX005 (ip), vehicle: saline with Tween-80): 90 % of control
- T/C (endpoint: mean survival time, dose: 25.0 mg/kg/injection, schedule: Q01DX005 (ip), vehicle: saline with Tween-80): 88 % of control
- T/C (endpoint: mean survival time, dose: 50.0 mg/kg/injection, schedule: Q01DX005 (ip), vehicle: saline with Tween-80): 87 % of control
- T/C (endpoint: mean survival time, dose: 100.0 mg/kg/injection, schedule: Q01DX005 (ip), vehicle: saline with Tween-80): 94 % of control
- T/C (endpoint: mean survival time, dose: 200.0 mg/kg/injection, schedule: Q01DX005 (ip), vehicle: saline with Tween-80): 96 % of control

SMILES: COc1cc([N+](=O)[O-])ccc1C(=O)O
- T/C (endpoint: mean survival time, dose: 100.0 mg/kg/injection, schedule: Q01DX001 (ip), vehicle: Klucel (hydroxypropylcellulose) (HPC)): 95 % of control
- T/C (endpoint: mean survival time, dose: 200.0 mg/kg/injection, schedule: Q01DX001 (ip), vehicle: Klucel (hydroxypropylcellulose) (HPC)): 100 % of control
- T/C (endpoint: mean survival time, dose: 400.0 mg/kg/injection, schedule: Q01DX001 (ip), vehicle: Klucel (hydroxypropylcellulose) (HPC)): 103 % of control

SMILES: CCC(O)C[As](=O)(O)c1ccccc1Cl (centres undefined)
- T/C (endpoint: mean survival time, dose: 6.25 mg/kg/injection, schedule: Q04DX003 (ip), vehicle: saline with Tween-80): 107 % of control
- T/C (endpoint: mean survival time, dose: 12.5 mg/kg/injection, schedule: Q04DX003 (ip), vehicle: saline with Tween-80): 98 % of control
- T/C (endpoint: mean survival time, dose: 25.0 mg/kg/injection, schedule: Q04DX003 (ip), vehicle: saline with Tween-80): 104 % of control

SMILES: [Cl][Pt+2]([Cl])([Cl])[Cl].[NH-]Cc1ccccc1C[NH-]
- T/C (endpoint: mean survival time, dose: 5.0 mg/kg/injection, schedule: Q04DX003 (ip), vehicle: saline with Tween-80): 110 % of control
- T/C (endpoint: mean survival time, dose: 10.0 mg/kg/injection, schedule: Q04DX003 (ip), vehicle: saline with Tween-80): 118 % of control
- T/C (endpoint: mean survival time, dose: 20.0 mg/kg/injection, schedule: Q04DX003 (ip), vehicle: saline with Tween-80): 120 % of control
- T/C (endpoint: mean survival time, dose: 40.0 mg/kg/injection, schedule: Q04DX003 (ip), vehicle: saline with Tween-80): 86 % of control

SMILES: Cc1ccc(C)c(NC(=O)c2ccc(Cl)cc2Cl)c1
- T/C [3]: 98 % of control
- T/C [5]: 98 % of control
- T/C [7]: 96 % of control

SMILES: CCN1CCC(C(C)(C)C)CC1
- T/C (endpoint: mean survival time, dose: 100.0 mg/kg/injection, schedule: Q01DX001 (ip), vehicle: acetone): 102 % of control

SMILES: COP(=O)(OC)OCC1OC(c2n[nH]c(C(N)=O)c2O)C(O)C1O (centres undefined)
- T/C (endpoint: median survival time, dose: 8.13 mg/kg/injection, schedule: Q01DX005 (ip), vehicle: saline): 100 % of control
- T/C (endpoint: median survival time, dose: 16.25 mg/kg/injection, schedule: Q01DX005 (ip), vehicle: saline): 102 % of control
- T/C (endpoint: median survival time, dose: 32.5 mg/kg/injection, schedule: Q01DX005 (ip), vehicle: saline): 101 % of control
- T/C (endpoint: median survival time, dose: 65.0 mg/kg/injection, schedule: Q01DX005 (ip), vehicle: saline): 111 % of control
- T/C (endpoint: median survival time, dose: 130.0 mg/kg/injection, schedule: Q01DX005 (ip), vehicle: saline): 111 % of control

SMILES: [N-]=[N+]=NCC1OC(OC2(CO)OC(CN=[N+]=[N-])C(O)C2O)C(O)C(O)C1O (centres undefined)
- T/C (endpoint: mean survival time, dose: 50.0 mg/kg/injection, schedule: Q01DX009 (ip), vehicle: saline): 102 % of control
- T/C [1]: 102 % of control

SMILES: CCCCCCC[CH2][Sn][CH2]CCCCCCC.Nc1ncnc2c1ncn2C1OC(CO)C2[OH+][OH+]C21 (centres undefined)
- T/C (endpoint: mean survival time, dose: 12.5 mg/kg/injection, schedule: Q01DX005 (ip), vehicle: other): 98 % of control
- T/C (endpoint: mean survival time, dose: 25.0 mg/kg/injection, schedule: Q01DX005 (ip), vehicle: other): 110 % of control

SMILES: O=c1[nH]c(-c2ccccc2)nc(Cc2ccccc2)c1CCO
- T/C [3]: 89 % of control
- T/C [5]: 89 % of control
- T/C [7]: 91 % of control
